{"source": "paper PMC10793102", "about": "(Acta Pharmaceutica Sinica. B, 2023)", "key": {"RIPK1": {"system": "RIPK1", "assay_type": "cell-based, human"}, "L929": {"system": "L929", "assay": "Cell viability assay, protection from necroptosis in L929 cells", "assay_type": "cell-based, mouse", "details": "Mus musculus, L929, 16 h"}, "p-S345 MLKL": {"system": "p-S345 MLKL", "assay": "Pharmacodynamic study in SIRS mouse model, p-MLKL immunostaining", "assay_type": "in vivo", "details": "2 mpk, 8 h after TNFα (20 μg)"}, "[1]": {"system": "phosphorylation of RIPK1, RIPK3 and MLKL", "assay": "Western blotting of necroptotic signaling in L929 cells", "assay_type": "cell-based, mouse", "details": "TNFα (40 ng/mL) and SM164 (25 nmol/L), 15 h, titration"}, "SARS-CoV-2": {"system": "SARS-CoV-2", "assay_type": "cell-based", "details": "5 μmol/L, 48 h, human lung organoids"}, "hRIPK1": {"target": "T1, hRIPK1 (Homo sapiens, UniProt Q13546)", "T1 sequence (Q13546 1-671)": "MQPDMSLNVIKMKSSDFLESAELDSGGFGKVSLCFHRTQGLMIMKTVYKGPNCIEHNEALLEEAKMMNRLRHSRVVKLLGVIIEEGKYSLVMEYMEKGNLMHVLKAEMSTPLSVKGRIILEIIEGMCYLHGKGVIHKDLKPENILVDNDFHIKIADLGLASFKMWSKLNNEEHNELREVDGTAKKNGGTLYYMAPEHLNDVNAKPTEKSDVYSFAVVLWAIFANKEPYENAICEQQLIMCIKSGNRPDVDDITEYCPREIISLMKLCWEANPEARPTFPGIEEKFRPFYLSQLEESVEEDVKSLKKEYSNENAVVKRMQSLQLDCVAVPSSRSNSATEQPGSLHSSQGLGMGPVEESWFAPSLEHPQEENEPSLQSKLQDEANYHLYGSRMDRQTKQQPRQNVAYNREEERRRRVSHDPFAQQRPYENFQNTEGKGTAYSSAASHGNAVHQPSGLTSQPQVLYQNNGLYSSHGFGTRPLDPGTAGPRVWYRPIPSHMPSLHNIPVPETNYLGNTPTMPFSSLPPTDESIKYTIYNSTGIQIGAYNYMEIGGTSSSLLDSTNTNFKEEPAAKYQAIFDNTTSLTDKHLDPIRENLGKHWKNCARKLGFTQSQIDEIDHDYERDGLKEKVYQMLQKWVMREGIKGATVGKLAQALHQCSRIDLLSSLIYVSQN", "assay": "In vitro RIPK1 kinase activity assay", "assay_type": "biochemical", "details": "Enzymatic IC50s RIPK1, hRIPK1 enzymatic assay"}, "[2]": {"system": "TNFα-induced systemic inflammatory response syndrome", "assay": "TNFα-induced SIRS mouse model", "assay_type": "in vivo, C57BL/6J male mice", "details": "TNFα 10 μg iv"}, "PK study in mice": {"assay": "PK study in mice", "assay_type": "in vivo", "details": "male, ICR, mouse, plasma"}, "RA symptoms": {"system": "RA symptoms", "assay": "RA mouse model induced by collagen antibodies and LPS", "assay_type": "in vivo, BALB/c male mice", "details": "15 or 30 mpk po daily, 8 days"}, "p-S166 RIPK1": {"system": "p-S166 RIPK1", "assay": "Pharmacodynamic study in SIRS mouse model, p-RIPK1 immunostaining", "assay_type": "in vivo", "details": "1 mpk, 8 h after TNFα (20 μg)"}, "FADD−/− Jurkat": {"system": "FADD−/− Jurkat", "assay": "Cell viability assay, protection from necroptosis in FADD−/− Jurkat cells", "assay_type": "cell-based", "details": "Homo sapiens, 16 h"}, "PK study in rats": {"assay": "PK study in rats", "assay_type": "in vivo", "details": "SD, rat, plasma"}, "hRIPK3": {"target": "hRIPK3 (Homo sapiens, UniProt Q9Y572)", "sequence (Q9Y572 whole entry)": "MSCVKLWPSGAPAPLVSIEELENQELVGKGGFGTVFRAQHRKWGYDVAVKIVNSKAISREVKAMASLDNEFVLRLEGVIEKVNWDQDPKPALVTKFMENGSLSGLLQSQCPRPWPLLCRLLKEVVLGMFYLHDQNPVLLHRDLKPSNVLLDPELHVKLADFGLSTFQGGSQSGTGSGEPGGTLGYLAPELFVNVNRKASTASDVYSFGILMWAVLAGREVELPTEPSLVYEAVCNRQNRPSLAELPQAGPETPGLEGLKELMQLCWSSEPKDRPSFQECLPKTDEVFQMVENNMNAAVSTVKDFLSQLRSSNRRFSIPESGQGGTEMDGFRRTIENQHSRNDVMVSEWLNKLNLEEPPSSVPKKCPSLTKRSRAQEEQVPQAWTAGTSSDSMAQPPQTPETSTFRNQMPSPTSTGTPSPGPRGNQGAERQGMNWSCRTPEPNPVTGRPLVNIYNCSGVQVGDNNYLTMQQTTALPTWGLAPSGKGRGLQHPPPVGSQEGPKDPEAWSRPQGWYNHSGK", "assay": "In vitro RIPK3 kinase activity assay", "assay_type": "biochemical"}, "TEL-TRKA fusion": {"target": "TEL-TRKA fusion (Homo sapiens, UniProt P04629+P41212)", "sequence (P04629 510-781 limits assumed, one chain of several)": "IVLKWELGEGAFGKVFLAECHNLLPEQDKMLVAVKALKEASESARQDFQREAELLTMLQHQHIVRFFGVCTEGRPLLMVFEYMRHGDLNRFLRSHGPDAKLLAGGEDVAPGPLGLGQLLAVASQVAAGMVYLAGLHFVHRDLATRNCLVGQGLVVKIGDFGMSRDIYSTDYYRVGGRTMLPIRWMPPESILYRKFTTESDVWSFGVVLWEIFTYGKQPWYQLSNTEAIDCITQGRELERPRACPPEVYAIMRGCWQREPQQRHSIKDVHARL", "assay": "Anti-proliferation in engineered Ba/F3 cells dependent on TEL-TRKA", "assay_type": "cell-based", "details": "read-out: IC50 anti-proliferative effect, TEL-TRKA Ba/F3; 72 h"}, "Ripk1K612R/K612R mice": {"system": "Ripk1K612R/K612R mice", "assay_type": "in vivo, mouse", "details": "10 or 20 mpk po QD, 40 days"}}, "note": "Where two headings read alike, the source gives them in different places.", "data": [{"molecule": "C[C@@H](c1ccc(-n2cnc3c(N)ncnc32)cc1)N1CCc2nn(C)c(Cc3ccccc3)c2C1=O", "note": "[compound 62, (S)-5-(1-(4-(6-Amino-9H-purin-9-yl)phenyl)ethyl)-3-benzyl-2-methyl-2,5,6,7-tetrahydro-4H-pyrazolo[4,3-c]pyridin-4-one]", "values": [{"measurement": "activation of RIPK1 in SARS-CoV-2 infected human lung organoids", "setting": "RIPK1", "result": "completely abolished the activation of RIPK1"}, {"measurement": "EC50", "setting": "L929; read-out: EC50 L929 T + S", "result": 1.3, "unit": "nM"}, {"measurement": "EC50", "setting": "L929; read-out: EC50 L929 TNFα", "result": 0.2, "unit": "nM"}, {"measurement": "phosphorylation levels of MLKL in mouse organs", "setting": "p-S345 MLKL", "result": "significantly suppressed"}, {"measurement": "phosphorylation cascade (Western blot), L929", "setting": "[1]", "result": "almost completely blocked the phosphorylation cascade at 40 nmol/L"}, {"measurement": "antiviral effects (SARS-CoV-2 N protein levels)", "setting": "SARS-CoV-2", "result": "very strong antiviral effects compared to reported RIPK1i"}, {"measurement": "IC50", "setting": "hRIPK1", "result": 3.5, "unit": "nM"}, {"measurement": "symptoms (hypothermia) in SIRS mice", "setting": "[2]; 1 mpk (po)", "result": "almost eliminated the symptoms"}, {"measurement": "survival in SIRS mice", "setting": "[2]; 1 mpk (po), n = 7", "result": "protected all mice from the fatality"}, {"measurement": "acute hypothermia in SIRS mice", "setting": "[2]; 2 mpk (po)", "result": "completely mitigated the acute hypothermia"}, {"measurement": "AUC(0-inf)", "setting": "PK study in mice; iv, 0.5 mg/kg", "result": 476, "unit": "ng·h/mL"}, {"measurement": "AUC(0-t)", "setting": "PK study in mice; iv, 0.5 mg/kg", "result": 471, "unit": "ng·h/mL"}, {"measurement": "MRT inf", "setting": "PK study in mice; iv, 0.5 mg/kg", "result": 1.49, "unit": "h"}, {"measurement": "Vd", "setting": "PK study in mice; iv, 0.5 mg/kg", "result": 0.94, "unit": "L/kg"}, {"measurement": "clearance", "setting": "PK study in mice; iv, 0.5 mg/kg", "result": 10, "unit": "mL/min/kg"}, {"measurement": "half-life", "setting": "PK study in mice; iv, 0.5 mg/kg", "result": 1.29, "unit": "h"}, {"measurement": "AUC(0-inf)", "setting": "PK study in mice; po, 5 mg/kg", "result": 6520, "unit": "ng·h/mL"}, {"measurement": "AUC(0-t)", "setting": "PK study in mice; po, 5 mg/kg", "result": 6500, "unit": "ng·h/mL"}, {"measurement": "Cmax", "setting": "PK study in mice; po, 5 mg/kg", "result": 1980, "unit": "ng/mL"}, {"measurement": "MRT inf", "setting": "PK study in mice; po, 5 mg/kg", "result": 2.81, "unit": "h"}, {"measurement": "Tmax", "setting": "PK study in mice; po, 5 mg/kg", "result": 0.5, "unit": "h"}, {"measurement": "bioavailability", "setting": "PK study in mice; po, 5 mg/kg", "result": 82.2, "unit": "%"}, {"measurement": "half-life", "setting": "PK study in mice; po, 5 mg/kg", "result": 3.86, "unit": "h"}, {"measurement": "RA symptoms (paw edema, erythema, joint stiffness)", "setting": "RA symptoms", "result": "effectively eliminate most RA symptoms"}, {"measurement": "bodyweight in RA mice", "setting": "RA symptoms", "result": "without affecting the bodyweight"}, {"measurement": "TNFα-induced activation of RIPK1 in mouse organs", "setting": "p-S166 RIPK1", "result": "almost eliminated TNFα-induced activation of RIPK1 in mouse organs"}, {"measurement": "EC50", "setting": "FADD−/− Jurkat; read-out: EC50 FADD−/− Jurkat T + S", "result": 0.1, "unit": "nM"}, {"measurement": "EC50", "setting": "FADD−/− Jurkat; read-out: EC50 FADD−/− Jurkat TNFα", "result": 0.02, "unit": "nM"}, {"measurement": "Tmax", "setting": "PK study in rats; po, 5 mg/kg", "result": 0.5, "unit": "h"}, {"measurement": "bioavailability", "setting": "PK study in rats; po, 5 mg/kg", "result": 34.1, "unit": "%"}, {"measurement": "half-life", "setting": "PK study in rats; po, 5 mg/kg", "result": 4.19, "unit": "h"}, {"measurement": "AUC(0-inf)", "setting": "PK study in rats; male, iv, 0.5 mg/kg", "result": 397, "unit": "ng·h/mL"}, {"measurement": "AUC(0-t)", "setting": "PK study in rats; male, iv, 0.5 mg/kg", "result": 390, "unit": "ng·h/mL"}, {"measurement": "MRT inf", "setting": "PK study in rats; male, iv, 0.5 mg/kg", "result": 1.03, "unit": "h"}, {"measurement": "Vd", "setting": "PK study in rats; male, iv, 0.5 mg/kg", "result": 0.77, "unit": "L/kg"}, {"measurement": "clearance", "setting": "PK study in rats; male, iv, 0.5 mg/kg", "result": 13.3, "unit": "mL/min/kg"}, {"measurement": "half-life", "setting": "PK study in rats; male, iv, 0.5 mg/kg", "result": 0.91, "unit": "h"}, {"measurement": "AUC(0-inf)", "setting": "PK study in rats; male, po, 5 mg/kg", "result": 2250, "unit": "ng·h/mL"}, {"measurement": "AUC(0-t)", "setting": "PK study in rats; male, po, 5 mg/kg", "result": 2200, "unit": "ng·h/mL"}, {"measurement": "Cmax", "setting": "PK study in rats; male, po, 5 mg/kg", "result": 505, "unit": "ng/mL"}, {"measurement": "MRT inf", "setting": "PK study in rats; male, po, 5 mg/kg", "result": 6.82, "unit": "h"}, {"measurement": "IC50", "setting": "hRIPK3", "result": 730, "unit": "nM"}, {"measurement": "fold less potent against hRIPK3 than hRIPK1", "setting": "hRIPK3; ratio of enzymatic IC50s", "result": "at least 200 fold"}, {"measurement": "IC50", "setting": "TEL-TRKA fusion", "result": 634, "unit": "nM"}, {"measurement": "adverse effects during long-term treatment", "setting": "Ripk1K612R/K612R mice", "result": "no adverse effects had been observed"}, {"measurement": "colorectal stricture, splenomegaly and thymus hyperplasia symptoms in IBD mice", "setting": "Ripk1K612R/K612R mice", "result": "significantly alleviated"}, {"measurement": "diarrhea and weight loss symptoms in IBD mice", "setting": "Ripk1K612R/K612R mice; vs control group", "result": "significantly reduced diarrhea and weight loss symptoms"}]}]}
